Data published in patent US20260184712A1, “Heterocyclic Compounds as ENT Inhibitors and Compounds for Use in the Treatment of Cancers” (iTeos Belgium SA, priority 2022, published 2026).

Molecular target: T1, human ENT1 (Homo sapiens, UniProt Q99808)
T1 construct: JAR cells expressing ENT1 were purchased from ATCC; host or cells: JAR cells
T1 sequence (Q99808 1-456): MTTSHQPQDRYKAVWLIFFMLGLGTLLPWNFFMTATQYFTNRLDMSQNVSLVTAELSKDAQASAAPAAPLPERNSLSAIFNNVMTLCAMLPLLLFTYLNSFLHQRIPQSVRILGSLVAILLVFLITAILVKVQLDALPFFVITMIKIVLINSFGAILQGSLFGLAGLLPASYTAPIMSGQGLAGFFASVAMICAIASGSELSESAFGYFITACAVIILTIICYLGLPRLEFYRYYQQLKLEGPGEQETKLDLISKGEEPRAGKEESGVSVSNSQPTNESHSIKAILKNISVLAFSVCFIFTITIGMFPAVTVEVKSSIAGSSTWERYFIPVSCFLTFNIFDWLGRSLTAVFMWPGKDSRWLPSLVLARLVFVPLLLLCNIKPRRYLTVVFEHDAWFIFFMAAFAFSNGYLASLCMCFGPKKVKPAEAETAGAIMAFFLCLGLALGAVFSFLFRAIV
Experiment: ENT1 binding assay (competition with Sahenta-DY647 on JAR cells)
Conditions: competition with SAHENTA-DY647 binding; IC50 categorized; read-out: Binding Assay IC50
Procedure, shortened: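 Fluorescent-tracer displacement: compound incubated with JAR cells 30 min, 4 °C, before Sahenta-DY647 (100 nM) for another 30 min, 4 °C, in Hepes-buffered HBSS with 0.1% BSA. Bound tracer read at 670 nm after washes; IC50 from four-parameter fit, reported as mean of pIC50 values.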

| IC50 [µM] | Compound |
| --- | --- |
| > 0.5 | C[C@H]1O[C@@H](n2cnc3c(OCCc4ccc(OC(F)(F)F)cc4)ncnc32)[C@H](O)[C@@H]1O [Compound 241] |
| > 0.5 | C[C@H]1O[C@@H](n2cnc3c(SCc4ccccc4S(N)(=O)=O)ncnc32)[C@H](O)[C@@H]1O [Compound 242] |
| > 0.5 | NC(=O)[C@H]1O[C@@H](n2cnc3c(SCc4ccc([N+](=O)[O-])cc4)ncnc32)[C@H](O)[C@@H]1O [Compound 243] |
| > 0.5 | C[C@H]1O[C@@H](n2cnc3c(OCc4ccc(C#N)cc4)nc(Cl)nc32)[C@H](O)[C@@H]1O [Compound 244] |
| > 0.5 | CC(=O)c1ccc(COc2ncnc3c2ncn3[C@@H]2O[C@H](C)[C@@H](O)[C@H]2O)cc1 [Compound 245] |
| > 0.5 | C[C@H]1O[C@@H](n2cnc3c(OCc4cccc(OC(F)F)c4)ncnc32)[C@H](O)[C@@H]1O [Compound 246] |
| > 0.5 | C[C@H]1O[C@@H](n2c(O)nc3c(OCc4ccc([N+](=O)[O-])cc4)ncnc32)[C@H](O)[C@@H]1O [Compound 247] |
| > 0.5 | C[C@H]1O[C@@H](n2cnc3c(OCCc4ccc([N+](=O)[O-])nc4)ncnc32)[C@H](O)[C@@H]1O [Compound 248] |
| > 0.5 | C[C@H]1O[C@@H](n2cnc3c(OCCc4ccc(C#N)cc4)ncnc32)[C@H](O)[C@@H]1O [Compound 249] |
| > 0.5 | C[C@H]1O[C@@H](n2cnc3c(OCc4ccc(Cl)c(C(F)(F)F)c4)ncnc32)[C@H](O)[C@@H]1O [Compound 250] |
| > 0.5 | C[C@H]1O[C@@H](n2cnc3c(SCc4cncc(C#N)c4)ncnc32)[C@H](O)[C@@H]1O [Compound 251] |
| > 0.5 | C[C@H]1O[C@@H](n2cnc3c(NCCc4ccc([N+](=O)[O-])cc4)ncnc32)[C@H](O)[C@@H]1O [Compound 252] |
| > 0.5 | C[C@H]1O[C@@H](n2cnc3c(C(=O)N4CCCC4c4ccccc4)ncnc32)[C@H](O)[C@@H]1O (stereo partly drawn) [Compound 253] |
| > 0.5 | C[C@H]1O[C@@H](n2cnc3c(NCc4ccc(Cl)c(Cl)c4)ncnc32)[C@H](O)[C@@H]1O [Compound 254] |
| > 0.5 | C[C@H]1O[C@@H](n2cnc3c(NCc4ccc(-c5ncon5)cc4)ncnc32)[C@H](O)[C@@H]1O [Compound 255] |
| > 0.5 | C[C@H]1O[C@@H](n2cnc3c(OCc4ccc([N+](=O)[O-])cc4)nc(O)nc32)[C@H](O)[C@@H]1O [Compound 256] |
| > 0.5 | C[C@H]1O[C@@H](n2cnc3c(SCc4ccc(C#N)cn4)ncnc32)[C@H](O)[C@@H]1O [Compound 257] |
| > 0.5 | C[C@H]1OC(n2cnc3c(COc4ccc(C#N)c(F)c4)ncnc32)[C@H](O)[C@@H]1O (stereo partly drawn) [Compound 258] |
| > 0.5 | Cc1nc(OCc2ccc([N+](=O)[O-])cc2)c2ncn([C@@H]3O[C@H](C)[C@@H](O)[C@H]3O)c2n1 [Compound 259] |
| > 0.5 | C[C@H]1O[C@@H](n2cnc3c(OCc4c(F)cc(F)cc4F)ncnc32)[C@H](O)[C@@H]1O [Compound 260] |
| > 0.5 | C[C@H]1O[C@@H](n2cnc3c(NCc4ccc(NS(C)(=O)=O)cc4)ncnc32)[C@H](O)[C@@H]1O [Compound 261] |
| > 0.5 | CC(C)(O)[C@H]1O[C@@H](n2cnc3c(SCc4ccc(OC(F)(F)F)cc4)ncnc32)[C@H](O)[C@@H]1O [Compound 262] |
| > 0.5 | CC(Oc1ncnc2c1ncn2[C@@H]1O[C@H](C)[C@@H](O)[C@H]1O)c1ccc(OC(F)F)cc1 (stereo partly drawn) [Compound 263] |
| > 0.5 | CNc1nc2c(OCc3ccccc3)ncnc2n1[C@@H]1O[C@H](C)[C@@H](O)[C@H]1O [Compound 264] |
| > 0.5 | C[C@H]1O[C@@H](n2cnc3c(OCCc4cnc(C#N)c(F)c4)ncnc32)[C@H](O)[C@@H]1O [Compound 265] |
| > 0.5 | C[C@H]1O[C@@H](n2cnc3c(C(=O)N4CC(c5ccc([N+](=O)[O-])cc5)C4)ncnc32)[C@H](O)[C@@H]1O [Compound 266] |
| > 0.5 | C[C@H]1O[C@@H](n2cnc3c(OCCc4ccc(C(F)F)cc4)ncnc32)[C@H](O)[C@@H]1O [Compound 267] |
